Measured values reported in patent US8569327B2, “Phenanthroindolizidine derivative and NFκB inhibitor containing same as active ingredient” (Kabushiki Kaisha Yakult Honsha, priority 2008, dated 2013).

What was measured:
NFκB = experiment: Inhibitory action on the NFκB activity, luciferase assay in SW480/NRE-Luc cells; assay type: cell-based, human; conditions: for NFκB inhibitory activity IC50: SW480/NRE-Luc cells, compound 1 h then 50 ng/mL TNFα 4 h, luciferase; for IC50: Homo sapiens, SW480, read-out: NFκB inhibitory activity IC50
How it was run: (§1)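 Stable SW480 colon cancer lines carried luciferase driven by a 5× NFκB response element or by the SV40 promoter. Compound was added 1 h before 50 ng/mL TNFα, followed by 4 h culture at 37 °C; luminescence was read and IC50 taken as 50% inhibition of induced luciferase expression.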

SV40 promoter = SV40 promoter activity, luciferase assay in SW480/SV40-Luc cells; assay type: cell-based, human; conditions: for SV40 promoter inhibitory activity IC50: SW480/SV40-Luc cells, luciferase; for IC50: Homo sapiens, SW480, read-out: SV40 promoter inhibitory activity IC50
How it was run: as §1

[1] = system: human colon cancer SW480 cells; experiment: Inhibitory action on the proliferation of SW480 cells; assay type: cell-based; conditions: 48 hours, TetraColor ONE; for IC50: Homo sapiens, SW480
How it was run: (§2)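 Cells seeded overnight (SW480 2000/well in 10% FBS/RPMI1640; A549, HT-29 1000/well in 10% FBS DMEM or DMEM F12 HAM), then compound-treated at 37 °C, 5% CO2 for 48 h (SW480) or 96 h (A549, HT-29). Viable cells counted by TetraColor ONE; IC50 for 50% proliferation inhibition.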

[2] = system: human colon cancer HT-29 cells; experiment: Inhibitory action on the proliferation of HT-29 cells; assay type: cell-based; conditions: 96 hours, TetraColor ONE; for IC50: Homo sapiens, HT-29
How it was run: as §2

[3] = system: human non-small cell lung cancer A549 cells; experiment: Inhibitory action on the proliferation of A549 cells; assay type: cell-based; conditions: 96 hours, TetraColor ONE; for IC50: Homo sapiens, A549
How it was run: as §2

[4] = system: mice transplanted with mouse fibrosarcoma Meth A cells; experiment: Animal toxicity test; assay type: in vivo; conditions: intravenous days 1, 5, 9, observed three weeks
Procedure: Also, the toxicity of known phenanthroindolizidine alkaloid compounds, namely (12aS,13S)-6,7-dimethoxy-9,10,11,12,12a,13-hexahydro-9a-aza-cyclopenta[b]triphenylene-3,13-diol (known compound 1; refer to WO01/023384) and (12aS,13S)-3,6,7-trimethoxy-9,10,11,12,12a,13-hexahydro-9a-aza-cyclopenta[b]triphenylene-13-ol (known compound 2; refer to Planta Med., 2002, 68: 186-188), was simultaneously studied. To a control group, a physiological saline solution, a solvent, was administered. As a result, as shown in the following Tables 35 and 36, all the mice survived in a group administered with the compound of the present invention.

Structure (SMILES) | NFκB inhibitory activity IC50 (NFκB) [ng/mL] | SV40 promoter inhibitory activity IC50 (SV40 promoter) [ng/mL] | SW480 proliferation inhibitory action IC50 [1] [ng/mL] | HT-29 proliferation inhibitory action IC50 [2] [ng/mL] | A549 proliferation inhibitory action IC50 [3] [ng/mL] | Mortality rate ([4]; total dose 25 mg/kg) | Mortality rate ([4]; total dose 50 mg/kg) | IC50 (NFκB) [ng/mL] | IC50 (SV40 promoter) [ng/mL] | IC50 [1] [ng/mL] | IC50 [2] [ng/mL] | IC50 [3] [ng/mL]
COc1cc2c3c(c4ccc(OC(=O)N(C)C)cc4c2cc1OC)[C@H](O)[C@@H]1CCCN1C3.Cl [Compound 21, dimethyl-carbamic acid(12aS,13S)-13-hydroxy-6,7-dimethoxy-9,10,11,12,12a,13-hexahydro-9a-aza-cyclopenta[b]triphenylene-3-yl ester hydrochloride] | 23.3 | >10000 | 38.3 | 24.2 | 16.4 | 0/5 | 0/5 | – | – | – | – | –
C#CCOC(=O)Oc1ccc2c3c(c4cc(OC)c(OC)cc4c2c1)CN1CCC[C@H]1[C@H]3O.Cl [Compound 27, carbonic acid(12aS,13S)-13-hydroxy-6,7-dimethoxy-9,10,11,12,12a,13-hexahydro-9a-aza-cyclopenta[b]triphenylene-3-yl ester-propyn-2-yl ester hydrochloride] | 0.37 | >10 | 0.66 | 0.055 | 0.025 | 0/5 | 0/5 | – | – | – | – | –
CCOC(=O)Oc1ccc2c3c(c4cc(OC)c(OC)cc4c2c1)CN1CCC[C@H]1[C@H]3O.Cl [Compound 28, carbonic acid ethyl ester(12aS,13S)-13-hydroxy-6,7-dimethoxy-9,10,11,12,12a,13-hexahydro-9a-aza-cyclopenta[b]triphenylene-3-yl ester hydrochloride] | 1.0 | >10 | 0.65 | 0.064 | 0.037 | 0/5 | 0/5 | – | – | – | – | –
COc1cc2c3c(c4cc(O)ccc4c2cc1OC)[C@H](O)[C@@H]1CCCN1C3.Cl [Compound 29, (12aS,13S)-6,7-dimethoxy-9,10,11,12,12a,13-hexahydro-9a-aza-cyclopenta[b]triphenylene-2,13-diol hydrochloride] | – | – | – | – | – | 0/5 | 0/5 | 1.4 | > 1000 | 4 | 2.5 | 1.7
COc1cc2c3c(c4ccc(F)cc4c2cc1OC)C[C@@H]1CCCN1C3.Cl [Compound 31, (S)-3-fluoro-6,7-dimethoxy-9,10,11,12,12a,13-hexahydro-9a-aza-cyclopenta[b]triphenylene hydrochloride] | – | – | – | – | – | 0/5 | 0/5 | 28.8 | > 1000 | 50.2 | 10.6 | 1.5
COc1cc2c3c(c4ccccc4c2cc1OC)C[C@@H]1CCCN1C3.Cl [Compound 32, (S)-6,7-dimethoxy-9,10,11,12,12a,13-hexahydro-9a-aza-cyclopenta[b]triphenylene hydrochloride] | – | – | – | – | – | 0/5 | 0/5 | 27.8 | > 100 | 39.3 | 3.1 | 0.7
COc1cc2c3c(c4cc(O)ccc4c2cc1OC)C[C@@H]1CCCN1C3.Cl [Compound 33, (S)-6,7-dimethoxy-9,10,11,12,12a,13-hexahydro-9a-aza-cyclopenta[b]triphenylene-2-ol hydrochloride] | – | – | – | – | – | 0/5 | 0/5 | 5.3 | > 100 | 10.8 | 6.4 | 0.97
COc1cc2c3c(c4ccc(OC(C)=O)cc4c2cc1OC)C[C@@H]1CCCN1C3.Cl [Compound 34, acetic acid(S)-6,7-dimethoxy-9,10,11,12,12a,13-hexahydro-9a-aza-cyclopenta[b]triphenylene-3-yl ester hydrochloride] | 0.026 | >100 | 0.042 | 0.52 | 0.18 | 0/5 | 0/5 | – | – | – | – | –
COC(=O)CCC(=O)Oc1ccc2c3c(c4cc(OC)c(OC)cc4c2c1)CN1CCC[C@H]1C3.Cl [Compound 36, succinic acid(S)-6,7-dimethoxy-9,10,11,12,12a,13-hexahydro-9a-aza-cyclopenta[b]triphenylene-3-yl ester methyl ester hydrochloride] | 0.64 | >100 | 0.96 | 2.3 | 0.82 | 0/5 | 0/5 | – | – | – | – | –
COC(=O)Oc1ccc2c3c(c4cc(OC)c(OC)cc4c2c1)CN1CCC[C@H]1C3.Cl [Compound 37, carbonic acid(S)-6,7-dimethoxy-9,10,11,12,12a,13-hexahydro-9a-aza-cyclopenta[b]triphenylene-3-yl ester methyl ester hydrochloride] | 2.9 | >100 | 0.68 | 1.6 | 0.65 | 0/5 | 0/5 | – | – | – | – | –
COc1cc2c3c(c4ccc(OC(=O)c5ccco5)cc4c2cc1OC)C[C@@H]1CCCN1C3.Cl [Compound 38, furan-2-carboxylic acid(S)-6,7-dimethoxy-9,10,11,12,12a,13-hexahydro-9a-aza-cyclopenta[b]triphenylene-3-yl ester hydrochloride] | 0.50 | >1000 | 0.62 | 3.2 | 1.1 | 0/5 | 0/5 | – | – | – | – | –
COc1cc2c3c(c4ccc(OC(=O)c5cccnc5)cc4c2cc1OC)C[C@@H]1CCCN1C3.Cl [Compound 39, nicotinic acid(S)-6,7-dimethoxy-9,10,11,12,12a,13-hexahydro-9a-aza-cyclopenta[b]triphenylene-3-yl ester hydrochloride] | 2.2 | >100 | 1.3 | 2.6 | 0.97 | 0/5 | 0/5 | – | – | – | – | –
